Literature values in patent US10881615B2, “Pharmaceutical composition comprising dabigatran etexilate, and preparation method, solid preparation and use thereof” (Chia Tai Tianqing Pharmaceutical Group Co., Ltd., priority 2014, dated 2021).

Conditions: medium at pH of >4.0

CCCCCCOC(=O)NC(=N)c1ccc(NCc2nc3cc(C(=O)N(CCC(=O)OCC)c4ccccn4)ccc3n2C)cc1 [dabigatran etexilate, 3-[(2-{[4-(hexyloxycarbonylamino-imino-methyl)-phenylamino]-methyl}-1-methyl-1H-benzimidazol-5-yl-carbonyl)-pyridin-2-yl-amino]-ethyl propionate]
Solubility: almost insoluble
